Measurements from ChEMBL document CHEMBL5528056, “BAY-9835: Discovery of the First Orally Bioavailable ADAMTS7 Inhibitor” (J Med Chem, 2024).
“And” between values parts separate entries of the source, which are not always exact repeats. Equal values may be shown once.

Legend:
[1] = target: A disintegrin and metalloproteinase with thrombospondin motifs 7 (Homo sapiens, UniProt Q9UKP4); assay: Inhibition of recombinant ADAMTS7 (unknown origin) using HiLyteFluor-488 DELSSMVLELRGLRT-K(QXL520)-E-NH2 as substrate incubated for 120 mins by FRET assay
[2] = Selectivity ratio of IC50 for ADAMTS12 (unknown origin) to IC50 for ADAMTS7 (unknown origin)
[3] = Clearance in iv-dosed Wistar rat measured after 24 hrs by HPLC-MS/MS analysis; type: ADME; conditions: in vivo
[4] = Selectivity ratio of IC50 for MMP12 (unknown origin) to IC50 for ADAMTS7 (unknown origin)
[5] = Selectivity ratio of IC50 for ADAMTS4 (unknown origin) to IC50 for ADAMTS7 (unknown origin)
[6] = Selectivity ratio of IC50 for ADAM17 (unknown origin) to IC50 for ADAMTS7 (unknown origin)
[7] = Selectivity ratio of IC50 for ADAMTS5 (unknown origin) to IC50 for ADAMTS7 (unknown origin)
[8] = Selectivity ratio of IC50 for MMP15 (unknown origin) to IC50 for ADAMTS7 (unknown origin)
[9] = target: Cytochrome P450 3A4 (Homo sapiens, UniProt P08684); assay: Induction of CYP3A4 in human hepatocytes assessed as threshold concentration incubated for 48 hrs by qPCR analysis; type: ADME, cell-based, Hepatocyte
[10] = AUC (infinity) in iv-dosed Wistar rat by HPLC-MS/MS analysis; type: ADME; conditions: in vivo
[11] = Selectivity ratio of IC50 for MMP2 (unknown origin) to IC50 for ADAMTS7 (unknown origin)
[12] = Oral bioavailability iv-dosed Wistar rat measured after 24 hrs by HPLC-MS/MS analysis; type: ADME, organism-based; conditions: in vivo
[13] = Unbound plasma protein binding in iv-dosed Wistar rat measured after 24 hrs by HPLC-MS/MS analysis; type: ADME, cell-free

Sequence of A disintegrin and metalloproteinase with thrombospondin motifs 7 (Q9UKP4 whole entry): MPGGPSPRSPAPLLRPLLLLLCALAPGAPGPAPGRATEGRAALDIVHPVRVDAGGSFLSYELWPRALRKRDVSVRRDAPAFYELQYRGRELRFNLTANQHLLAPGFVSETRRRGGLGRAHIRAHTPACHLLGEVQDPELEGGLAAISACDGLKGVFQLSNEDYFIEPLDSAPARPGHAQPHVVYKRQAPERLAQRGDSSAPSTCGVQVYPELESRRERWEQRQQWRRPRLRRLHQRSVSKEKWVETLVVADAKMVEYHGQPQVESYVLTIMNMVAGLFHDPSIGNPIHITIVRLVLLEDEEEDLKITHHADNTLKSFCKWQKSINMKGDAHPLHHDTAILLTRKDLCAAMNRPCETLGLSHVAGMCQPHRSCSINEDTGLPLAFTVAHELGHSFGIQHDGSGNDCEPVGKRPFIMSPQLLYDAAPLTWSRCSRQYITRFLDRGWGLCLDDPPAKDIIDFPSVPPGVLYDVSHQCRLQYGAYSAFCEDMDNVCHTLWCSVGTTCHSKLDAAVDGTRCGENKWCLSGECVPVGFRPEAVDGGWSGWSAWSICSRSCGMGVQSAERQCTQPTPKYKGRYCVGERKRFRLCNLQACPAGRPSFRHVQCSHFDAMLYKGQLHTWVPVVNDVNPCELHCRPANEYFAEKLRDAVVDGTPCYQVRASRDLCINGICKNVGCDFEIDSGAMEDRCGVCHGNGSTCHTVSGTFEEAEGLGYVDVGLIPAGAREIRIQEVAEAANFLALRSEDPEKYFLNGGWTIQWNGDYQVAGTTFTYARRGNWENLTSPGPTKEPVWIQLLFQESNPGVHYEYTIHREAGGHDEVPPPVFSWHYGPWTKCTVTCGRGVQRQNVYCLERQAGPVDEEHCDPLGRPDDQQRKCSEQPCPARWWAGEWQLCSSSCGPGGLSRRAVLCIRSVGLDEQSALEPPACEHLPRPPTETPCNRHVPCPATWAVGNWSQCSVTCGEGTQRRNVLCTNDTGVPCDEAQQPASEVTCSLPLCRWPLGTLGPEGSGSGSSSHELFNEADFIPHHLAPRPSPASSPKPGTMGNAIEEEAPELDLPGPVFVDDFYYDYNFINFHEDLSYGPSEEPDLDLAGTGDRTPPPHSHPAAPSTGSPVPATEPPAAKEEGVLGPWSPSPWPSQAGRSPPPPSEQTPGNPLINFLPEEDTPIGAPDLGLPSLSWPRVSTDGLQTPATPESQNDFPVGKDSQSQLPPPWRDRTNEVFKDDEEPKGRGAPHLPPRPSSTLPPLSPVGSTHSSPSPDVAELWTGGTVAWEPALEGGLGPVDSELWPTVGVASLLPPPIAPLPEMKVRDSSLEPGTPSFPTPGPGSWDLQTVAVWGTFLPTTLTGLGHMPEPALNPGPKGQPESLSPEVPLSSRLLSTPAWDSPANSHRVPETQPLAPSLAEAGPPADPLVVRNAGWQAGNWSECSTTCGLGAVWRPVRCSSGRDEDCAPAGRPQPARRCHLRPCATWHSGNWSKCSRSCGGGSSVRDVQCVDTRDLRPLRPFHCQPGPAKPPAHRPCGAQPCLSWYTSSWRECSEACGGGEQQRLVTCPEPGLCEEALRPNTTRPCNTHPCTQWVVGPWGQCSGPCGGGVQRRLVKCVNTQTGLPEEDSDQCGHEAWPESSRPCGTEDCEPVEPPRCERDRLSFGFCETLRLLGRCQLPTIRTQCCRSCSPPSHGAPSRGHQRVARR
Sequence of Cytochrome P450 3A4 (P08684 whole entry): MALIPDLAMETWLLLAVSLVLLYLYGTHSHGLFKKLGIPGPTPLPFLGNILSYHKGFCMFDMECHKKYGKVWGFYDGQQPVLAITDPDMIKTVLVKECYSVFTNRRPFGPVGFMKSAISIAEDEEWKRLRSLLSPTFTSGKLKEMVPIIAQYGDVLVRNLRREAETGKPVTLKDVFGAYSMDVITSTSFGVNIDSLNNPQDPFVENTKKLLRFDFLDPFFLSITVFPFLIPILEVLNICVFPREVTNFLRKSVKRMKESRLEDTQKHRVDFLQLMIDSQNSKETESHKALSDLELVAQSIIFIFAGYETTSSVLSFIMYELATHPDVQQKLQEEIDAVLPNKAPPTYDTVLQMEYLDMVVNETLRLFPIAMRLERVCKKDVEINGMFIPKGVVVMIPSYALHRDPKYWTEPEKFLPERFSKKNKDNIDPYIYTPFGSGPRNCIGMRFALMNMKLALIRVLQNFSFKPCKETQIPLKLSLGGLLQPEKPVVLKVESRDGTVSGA

Row | SMILES | IC50 [1] [nM] | Ratio IC50 [4] | other results
1 | Cc1sc(-c2cccnc2)nc1C1(CNC(=O)c2ccc(F)c(F)c2-c2ccc(C(F)(F)F)cc2)NC(=O)NC1=O (centres undefined) | 9 |  | Ratio IC50 [2]: 14
2 | Cn1nccc1[C@]1(CNC(=O)c2cc(F)ccc2-c2ccc(C(F)(F)F)cc2)NC(=O)NC1=O | 19 |  | CL [3]: 10 mL/min/kg
3 | Cc1sc(-c2ccccc2)nc1C1(CNC(=O)c2ccc(F)c(F)c2-c2ccc(C(F)(F)F)cc2)NC(=O)NC1=O (centres undefined) | 47 |  | Ratio IC50 [2]: 10
4 | O=C1NC(=O)[C@](CNC(=O)c2cnn(-c3ccccc3)c2)(C2CC2)N1 |  | 0.03 | 
5 | CCn1nccc1C1(CNC(=O)c2ccccc2-c2ccc(C(F)(F)F)cc2)NC(=O)NC1=O (centres undefined) |  | 96 | CL [3]: 17 mL/min/kg
6 | O=C1NC(=O)[C@](CNC(=O)c2cnn(-c3ccccc3F)n2)(C2CC2)N1 |  | 0.4 | 
7 | O=C1NC(=O)[C@](CNC(=O)c2cnn(-c3ccc(Cl)cc3)n2)(C2CC2)N1 |  | 0.8 | 
8 | O=C1NC(=O)[C@](CNC(=O)c2cnn(-c3ccc(F)cc3)n2)(C2CC2)N1 |  |  | Ratio IC50 [5]: > 20800; Ratio IC50 [6]: 863; Ratio IC50 [2]: 26; Ratio IC50 [7]: 12700; Ratio IC50 [8]: 41700
9 | O=C1NC(=O)[C@](CNC(=O)c2cnn(Cc3ccc(Cl)cc3)c2)(C2CC2)N1 | 280 | 7.4 | 
10 | Cn1nccc1[C@]1(CNC(=O)c2cccc(Cl)c2-c2ccc(C(F)(F)F)cc2)NC(=O)NC1=O | 16 |  | 
11 | Cn1ccnc1C1(CNC(=O)c2ccccc2-c2ccc(C(F)(F)F)cc2)NC(=O)NC1=O (single isomer, unassigned) | 3 | 450 | Activity [9]: 0.6 µM; AUC [10]: 0.6 kg·h/L
12 | Cn1nccc1[C@]1(CNC(=O)c2ccccc2-c2ccc(C(F)(F)F)cc2)NC(=O)NC1=O |  |  | Ratio IC50 [11]: 8320; Ratio IC50 [5]: 1440; Activity [9]: 16.6 µM; Ratio IC50 [6]: 303; Ratio IC50 [2]: 1; Ratio IC50 [7]: 3220; Ratio IC50 [8]: 6390
13 | Cc1ccc(-c2ccc(C(=O)NC[C@@]3(C4CC4)NC(=O)NC3=O)cc2)cc1 | 580 | 4.7 10^-4No_unit | 
14 | O=C1NC(=O)[C@](CNC(=O)c2cnn(-c3cnsc3)n2)(C2CC2)N1 |  | 0.2 | 
15 | Cn1cc(Cn2ncc(C(=O)NC[C@@]3(C4CC4)NC(=O)NC3=O)n2)cn1 | 850 | 29.4 | 
16 | Cc1ccc(-c2cccc(C(=O)NC[C@@]3(C4CC4)NC(=O)NC3=O)c2)cc1 | 2300 |  | 
17 | O=C1NC(=O)[C@](CNC(=O)c2cnn(-c3ccc(F)cn3)n2)(C2CC2)N1 | 115 | 0.6 | 
18 | COc1cccc(C(=O)NC[C@@]2(c3ccnn3C)NC(=O)NC2=O)c1-c1ccc(C(F)(F)F)cc1 | 29 |  | 
19 | Cn1nc(-c2ccccc2)cc1C1(CNC(=O)c2ccc(F)c(F)c2-c2ccc(C(F)(F)F)cc2)NC(=O)NC1=O (centres undefined) |  | 1450 | Ratio IC50 [5]: > 20800; Ratio IC50 [6]: 863; Ratio IC50 [2]: 26; Ratio IC50 [7]: 12700; Ratio IC50 [8]: 41700
20 | Cn1nccc1[C@]1(CNC(=O)c2ccc(F)cc2-c2ccc(C(F)(F)F)cc2)NC(=O)NC1=O | 19 |  | CL [3]: 15 mL/min/kg

Row | SMILES | IC50 [1] [nM] | Ratio IC50 [4] | other results
21 | O=C1NC(=O)[C@](CNC(=O)c2cnn(-c3cccc(Cl)c3)n2)(C2CC2)N1 |  | 0.1 | 
22 | O=C1NC(=O)[C@](CNC(=O)c2ccccc2-c2ccc(C(F)(F)F)cc2)(C2CC2)N1 |  | 11 | CL [3]: 1.7 mL/min/kg
23 | O=C1NC(=O)C(CNC(=O)c2ccccc2-c2ccc(C(F)(F)F)cc2)(c2ncsc2C(F)(F)F)N1 (centres undefined) |  | 31 | 
24 | Cc1cn(-c2ccccc2)nc1C1(CNC(=O)c2ccc(F)c(F)c2-c2ccc(C(F)(F)F)cc2)NC(=O)NC1=O (centres undefined) | 8 |  | Ratio IC50 [2]: 14
25 | Cc1c(C2(CNC(=O)c3ccccc3-c3ccc(C(F)(F)F)cc3)NC(=O)NC2=O)cnn1C (centres undefined) |  | 18 | 
26 | Cn1nccc1[C@]1(CNC(=O)c2ccc(Cl)c(F)c2-c2ccc(C(F)(F)F)cc2)NC(=O)NC1=O | 3 |  | 
27 | Cc1ccc(-n2ncc(C(=O)NC[C@@]3(C4CC4)NC(=O)NC3=O)n2)cc1 |  | 0.1 | 
28 | Cc1nc(C2(CNC(=O)c3ccccc3-c3ccc(C(F)(F)F)cc3)NC(=O)NC2=O)c(C)s1 (centres undefined) | 15 | 36 | 
29 | O=C1NC(=O)[C@](CNC(=O)c2cnn(Cc3nccs3)n2)(C2CC2)N1 | 910 | 4.6 | 
30 | Cc1nc(Cn2ncc(C(=O)NC[C@@]3(C4CC4)NC(=O)NC3=O)n2)cs1 | 930 | 33.5 | 
31 | Cn1nccc1[C@]1(CNC(=O)c2ccc(C(F)(F)F)c(F)c2-c2ccc(C(F)(F)F)cc2)NC(=O)NC1=O | 10 |  | 
32 | O=C1NC(=O)C(CNC(=O)c2ccccc2-c2ccc(C(F)(F)F)cc2)(c2cscn2)N1 (centres undefined) |  | 67 | CL [3]: 23.3 mL/min/kg
33 | O=C1NC(=O)C(CNC(=O)c2ccccc2-c2ccc(C(F)(F)F)cc2)(c2ccnn2CC(F)(F)F)N1 (centres undefined) |  | 29 | 
34 | Cn1nccc1[C@]1(CNC(=O)c2c(F)cccc2-c2ccc(C(F)(F)F)cc2)NC(=O)NC1=O | 79 |  | 
35 | O=C1NC(=O)[C@](CNC(=O)c2cnn(-c3cccc(F)c3)n2)(C2CC2)N1 |  | 1.1 | 
36 | Cn1nccc1[C@]1(CNC(=O)c2cccc(F)c2-c2ccc(C(F)(F)F)cc2)NC(=O)NC1=O | 5 |  | CL [3]: 12 mL/min/kg
37 | Cc1ccc(-c2ccccc2C(=O)NC[C@@]2(C3CC3)NC(=O)NC2=O)cc1 |  | 12 and 12.4 | Ratio IC50 [11]: 759; Ratio IC50 [5]: 115; Ratio IC50 [6]: 826; Ratio IC50 [7]: 213; Ratio IC50 [8]: 872
38 | Cc1scnc1C1(CNC(=O)c2ccccc2-c2ccc(C(F)(F)F)cc2)NC(=O)NC1=O (centres undefined) | 6 | 188 | CL [3]: 20 mL/min/kg
39 | O=C1NC(=O)[C@](CNC(=O)c2cnn(-c3ccccc3)n2)(C2CC2)N1 | 61 |  | CL [3]: 12 mL/min/kg; F [12]: 74%; Ratio IC50 [2]: 0.2; Fu [13]: 15%
